The experiment concerns the target T1, ROCKII or ROKα (Homo sapiens, UniProt O75116).
T1 construct: purchased Upstate 14-451
Kind of experiment: Determination of Rho kinase inhibition (33P-ATP Flash Plate assay). Type of experiment: biochemical. As to conditions: ATP 40 μM, respective form (salt or free base) as obtained in the examples. The method, then: Determination of Rho Kinase Inhibition
To measure Rho-kinase inhibition, IC50 values were determined according to the following protocol:
Buffer: 25 mM Tris pH7.5; 0.02% BSA; 5% Glycerol; 0.008% Triton X100; 2% DMSO, 1 mM DTT; 1 mM MgCl2; 0.5 μCi/well γ^33P ATP
Enzyme: ROCKII or ROKα) (Upstate, Catalog #14-451) 0.1 ng/μl
Final concentration of ATP in reaction mixture 40 μM
Biotinylated substrate, diluted to 0.25 μM with buffer described above (without ATP) • 1. 10 μl Tris buffer (±Inhibitor) • 2. Add 30 μL of enzyme solution • 3. Start the reaction with 30 μL of mix substrate/ATP/ATP33 • 4. Incubate for 20 min at room temperature • 5. Stop reaction with 30 μL of 50 mM EDTA • 6. Transfer 50 μL of stopped solution to Streptavidin Flash Plate plus, Perkin Elmer, SMP 103A • 7. Incubate for 30 min at RT • 8. Wash 4 times with 300 μl of PBS/0.1% Tween 20 • 9. Radioactivity in the well was determined
The following products/compounds were tested in said assay by using the respective form (salt or free base) obtained as in the examples described above and the following activities were measured.

SMILES strings stand for the structures.

T1 sequence (O75116 whole entry): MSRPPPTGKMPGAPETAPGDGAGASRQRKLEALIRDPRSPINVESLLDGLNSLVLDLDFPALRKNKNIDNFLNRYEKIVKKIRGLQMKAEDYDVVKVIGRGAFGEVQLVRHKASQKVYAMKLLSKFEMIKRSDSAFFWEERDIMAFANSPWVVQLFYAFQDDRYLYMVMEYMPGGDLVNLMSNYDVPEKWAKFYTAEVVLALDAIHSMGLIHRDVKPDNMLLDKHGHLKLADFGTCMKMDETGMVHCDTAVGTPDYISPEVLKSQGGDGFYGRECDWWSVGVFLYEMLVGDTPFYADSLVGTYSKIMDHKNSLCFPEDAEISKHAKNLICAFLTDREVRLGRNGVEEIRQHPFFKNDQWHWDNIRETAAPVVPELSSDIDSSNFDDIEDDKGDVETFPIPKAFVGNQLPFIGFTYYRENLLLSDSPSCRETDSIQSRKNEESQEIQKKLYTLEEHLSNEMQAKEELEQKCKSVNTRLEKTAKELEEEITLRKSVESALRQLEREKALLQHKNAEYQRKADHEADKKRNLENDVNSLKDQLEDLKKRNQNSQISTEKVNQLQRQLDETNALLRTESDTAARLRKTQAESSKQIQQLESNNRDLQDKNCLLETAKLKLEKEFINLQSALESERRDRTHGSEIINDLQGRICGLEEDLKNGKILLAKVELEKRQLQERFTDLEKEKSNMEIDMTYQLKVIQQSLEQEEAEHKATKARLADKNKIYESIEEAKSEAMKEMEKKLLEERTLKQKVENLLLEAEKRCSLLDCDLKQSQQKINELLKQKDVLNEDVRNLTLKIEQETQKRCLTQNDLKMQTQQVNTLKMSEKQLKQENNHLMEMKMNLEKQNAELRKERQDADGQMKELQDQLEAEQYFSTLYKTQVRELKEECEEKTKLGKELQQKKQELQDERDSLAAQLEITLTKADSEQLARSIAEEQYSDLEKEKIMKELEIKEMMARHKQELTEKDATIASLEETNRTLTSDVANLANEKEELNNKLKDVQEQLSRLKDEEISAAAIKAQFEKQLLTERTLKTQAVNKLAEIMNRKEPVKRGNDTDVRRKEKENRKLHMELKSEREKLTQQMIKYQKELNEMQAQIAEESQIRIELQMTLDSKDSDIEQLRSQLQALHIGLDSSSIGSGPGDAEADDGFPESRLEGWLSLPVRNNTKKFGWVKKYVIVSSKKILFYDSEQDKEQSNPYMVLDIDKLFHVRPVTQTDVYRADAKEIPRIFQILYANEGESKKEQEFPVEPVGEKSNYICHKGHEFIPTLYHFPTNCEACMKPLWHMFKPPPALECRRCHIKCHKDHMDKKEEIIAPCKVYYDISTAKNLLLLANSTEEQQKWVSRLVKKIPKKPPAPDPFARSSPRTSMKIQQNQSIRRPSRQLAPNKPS

As for `N[C@H]1CC[C@@H](Oc2cc3cc[nH]c(=O)c3cc2Cl)CC1` [Example 10, 6-(cis-4-Amino-cyclohexyloxy)-7-chloro-2H-isoquinolin-1-one], the pIC50 result is “+++++ (6.0≦pIC50)”. With `N[C@H]1CC[C@@H](Oc2ccc3c(=O)[nH]ccc3c2Cl)CC1` [Example 11, 6-(cis-4-Amino-cyclohexyloxy)-5-chloro-2H-isoquinolin-1-one] the entry was “+++++ (6.0≦pIC50)”; with `O=c1[nH]ccc2cc(O[C@H]3CC[C@@H](NC4CC4)CC3)c(Cl)cc12` [Example 12, 7-Chloro-6-(cis-4-cyclopropylamino-cyclohexyloxy)-2H-isoquinolin-1-one], “+++++ (6.0≦pIC50)”.

Consider `O=c1[nH]ccc2cc(O[C@H]3CC[C@@H](N(C4CC4)C4CC4)CC3)c(Cl)cc12` [Example 13, 7-Chloro-6-(cis-4-dicyclopropylamino-cyclohexyloxy)-2H-isoquinolin-1-one], for which the pIC50 result is on record as “+++++ (6.0≦pIC50)”. With `N[C@H]1CC[C@H](Oc2cc3cc[nH]c(=O)c3cc2Cl)CC1` [Example 14, 6-(trans-4-Amino-cyclohexyloxy)-7-chloro-isoquinolin-1-ol], the pIC50 result is “+++++ (6.0≦pIC50)”. For the compound `N[C@H]1CC[C@H](Oc2ccc3c(=O)[nH]ccc3c2)CC1` [Example 20, trans-6-(4-Amino-cyclohexyloxy)-2H-isoquinolin-1-one], the pIC50 result is “+++++ (6.0≦pIC50)”. Next, `CCN[C@H]1CC[C@@H](Oc2cc3cc[nH]c(=O)c3cc2Cl)CC1` [Example 29]: “+++++ (6.0≦pIC50)”; `O=c1[nH]ccc2cc(O[C@H]3CC[C@@H](NCc4cccc(Cl)c4)CC3)c(Cl)cc12` [Example 37]: “+++++ (6.0≦pIC50)”; `O=c1[nH]ccc2cc(O[C@H]3CC[C@@H](N(CC4CC4)CC4CC4)CC3)c(Cl)cc12` [Example 41]: “+++++ (6.0≦pIC50)”. `CCCN[C@H]1CC[C@@H](Oc2ccc3c(=O)[nH]ccc3c2Cl)CC1` [Example 44]: the pIC50 result was “+++++ (6.0≦pIC50)”. Next, `CCCCN[C@H]1CC[C@@H](Oc2ccc3c(=O)[nH]ccc3c2Cl)CC1` [Example 45]: “+++++ (6.0≦pIC50)”; `CC(C)N[C@H]1CC[C@@H](Oc2ccc3c(=O)[nH]ccc3c2Cl)CC1` [Example 46]: “+++++ (6.0≦pIC50)”; `O=c1[nH]ccc2c(Cl)c(O[C@H]3CC[C@@H](NCC4CC4)CC3)ccc12` [Example 48]: “+++++ (6.0≦pIC50)”. Next, `CCCCN(CCCC)[C@H]1CC[C@@H](Oc2ccc3c(=O)[nH]ccc3c2Cl)CC1` [Example 53]: “++++ (5.0≦pIC50<6.0)”; `CCN(CC)[C@H]1CC[C@H](Oc2cc3cc[nH]c(=O)c3cc2Cl)CC1` [Example 56]: “+++++ (6.0≦pIC50)”; `CCCCN[C@H]1CC[C@H](Oc2cc3cc[nH]c(=O)c3cc2Cl)CC1` [Example 58]: “+++++ (6.0≦pIC50)”. Next, `CC(C)CN(CC(C)C)[C@H]1CC[C@H](Oc2cc3cc[nH]c(=O)c3cc2Cl)CC1` [Example 65]: “+++++ (6.0≦pIC50)”.

As to `O=c1[nH]ccc2cc(O[C@H]3CC[C@H](N(CC4CC4)CC4CC4)CC3)c(Cl)cc12` [Example 66], the pIC50 entry is recorded as “++++ (5.0≦pIC50<6.0)”. With `O=c1[nH]ccc2cc(O[C@H]3CC[C@@H](NCc4ccccc4)CC3)c(Cl)cc12` [Example 67], the pIC50 result was “+++++ (6.0≦pIC50)”. Next, `O=c1[nH]ccc2cc(O[C@H]3CC[C@@H](NCc4cc(Cl)cc(Cl)c4)CC3)c(Cl)cc12` [Example 69]: “+++++ (6.0≦pIC50)”; `O=c1[nH]ccc2cc(O[C@H]3CC[C@@H](NCc4cc(Cl)ccc4Cl)CC3)c(Cl)cc12` [Example 70]: “+++++ (6.0≦pIC50)”. With `O=c1[nH]ccc2cc(O[C@H]3CC[C@@H](NCc4ccc(Cl)cc4Cl)CC3)c(Cl)cc12` [Example 71] the entry was “+++++ (6.0≦pIC50)”.

Consider `O=c1[nH]ccc2cc(O[C@H]3CC[C@@H](NCc4ccc5ccccc5c4)CC3)c(Cl)cc12` [Example 77], for which the pIC50 entry is “+++++ (6.0≦pIC50)”. As for `O=c1[nH]ccc2cc(O[C@H]3CC[C@@H](NCC4CC4)CC3)ccc12` [Example 125, 6-[cis-4-(Cyclopropylmethyl-amino)-cyclohexyloxy]-2H-isoquinolin-1-one], the pIC50 result is recorded as “+++++ (6.0≦pIC50)”.

Turning to `Cc1cc2c(=O)[nH]ccc2cc1O[C@H]1CC[C@H](N)CC1` [Example 137, 6-(trans-4-Amino-cyclohexyloxy)-7-methyl-2H-isoquinolin-1-one], the pIC50 entry was “+++++ (6.0≦pIC50)”. Next, `Cc1cc2c(=O)[nH]ccc2cc1O[C@H]1CC[C@@H](N)CC1.Cl` [Example 138, 6-(cis-4-Amino-cyclohexyloxy)-7-methyl-2H-isoquinolin-1-one]: “+++++ (6.0≦pIC50)”.
